Laboratory results from ChEMBL document CHEMBL1151367, “Catharanthus alkaloids. XXXVI. Isolation of vincaleukoblastine (VLB) and periformyline from Catharanthus trichophyllus and pericyclivine from Catharanthus roseus” (1981).
≈ marks a conversion by molar mass, not a printed value.

Key:
[1] = Cytotoxicity against human 9KB cells; type: functional; conditions: read-out: ED50 (the source's name)
[2] = test system: P388; experiment: Cytotoxicity against mouse P388 cells; type: functional; conditions: read-out: ED50 (the source's name)

Compound: C/C=C1/CN2CC[C@]34C(=C(C(=O)OC)[C@H]1C[C@H]23)Nc1ccccc14 [AKUAMMICINE]
- EC50 [1]: 2.4 µg/mL (≈ 7.44 µM)
- EC50 [2]: 1.7 µg/mL (≈ 5.27 µM)

Compound: CC[C@]12CN3CCc4c([nH]c5ccccc45)[C@@](C(=O)OC)(c4cc5c(cc4OC)N(C)[C@H]4[C@@](O)(C(=O)OC)[C@H](OC(C)=O)[C@]6(CC)C=CCN7CC[C@]54[C@@H]76)C[C@H](C3)[C@H]1O2 [LEUROSINE]
- EC50 [1]: 2.4 µg/mL (≈ 2.97 µM)
- EC50 [2]: 1.7 µg/mL (≈ 2.1 µM)

Compound: CC[C@]1(O)C[C@@H]2CN(CCc3c([nH]c4ccccc34)[C@@](C(=O)OC)(c3cc4c(cc3OC)N(C)[C@H]3[C@@](O)(C(=O)OC)[C@H](OC(C)=O)[C@]5(CC)C=CCN6CC[C@]43[C@@H]65)C2)C1 [VINBLASTINE]
- EC50 [1]: 2.4 µg/mL (≈ 2.96 µM)
- EC50 [2]: 1.7 µg/mL (≈ 2.1 µM)
